Measured values: US20240293314A1, “COMPOSITION FOR PARTICLE-MEDIATED TRANSPORT OF A DISSOLVED ACTIVE AGENT INTO HAIR FOLLICLES” (Charité – Universitätmedizin Berlin, priority 2021, published 2024)

What was measured:
[1] = assay type: in vitro ADME, porcine; conditions: pig, 1 h, 0.003 % w/w
Method: Three particle-free and three particle-containing formulations were prepared, each containing 0.003% F (dissolved in dispersion medium), and the penetration of F into hair follicles (HF) was studied.
Fluorescein (0.003% w/w) was added to dispersion media that contained no particles (water, TPGS-solution (1% w/w) or ethanol (96% v/v)) and was added to dispersion media that contained particles (1. curcumin nanocrystals (5% w/w dispersed in TPGS solution (1% w/w)—particle size was 257 nm, polydispersity index 0.26 determined by photon correlation spectroscopy); 2. quercetin nanocrystals (5% w/w dispersed in TPGS solution (1% w/w)—particle size was 580 nm, polydispersity index 0.36, determined by photon correlation spectroscopy); 3. Lipid nanoparticles (10% w/w dispersed in TPGS solution (1% w/w)—particle size was 195 nm, polydispersity index 0.09, determined by photon correlation spectroscopy).
The formulations (50 μl on a skin areal of 4 cm^2) were applied on fresh porcine ears (ventral side, massage for 60 s, penetration time 1 h at 32° C.). Skin biopsies (Ø 15 mm) were obtained from the treated skin areas from which skin sections (40 μm, 100 sections/biopsy) were prepared. The skin sections and the hair follicle sections were analyzed by epifluorescence microscopy. Images were taken and the penetration depth of the fluorescein was directly measured (n=3). […]

[2] = assay type: in vitro ADME
Text: FIG. 1: Confocal microscopic image of a skin section with hair follicle after topical application of fluorescein natrium salt (green fluorescent dye) dissolved in dispersion medium together with a caffeine nanosuspension.
Particle-containing formulations were applied as dispersions (particles in a liquid or semi-solid dispersion medium). Besides the particles, the dispersion medium also contained dissolved molecules, name the fluorescent molecule fluorescein, which is an organic compound soluble in water and alcohol.

penetration depth with particles compared to the particle-free formulations [1]: > 160%
Structure (SMILES): O=C1OC2(c3ccc(O)cc3Oc3cc(O)ccc32)c2ccccc21 [F, Fluorescein]
penetration into the hair follicles [2]: no efficient penetration into the hair follicles
